What was measured:
Format in all cases: cell-based
pEGFR in CUTO14 cells = target: T1, pEGFR in CUTO14 cells (Homo sapiens, UniProt P00533, DUP767-769); experiment: Inhibitor activity on EGFR phosphorylation (pEGFR AlphaLISA, 2 h), CUTO14 cells
T1 construct: endogenous in cells; host or cells: CUTO14 cells
Description: CUTO14 cells were obtained from Dr. Robert C. Doebele at the University of Colorado.
Shake 350 rpm for 1 hr in the dark • 3.4 Prepare donor mix under low light conditions prior to use. Dispense 5 μL of donor mix to all the wells. Mix well on the shaker, seal and wrap in aluminum foil and incubate 1.5 hrs at room temperature in the dark • 3.5 Transfer 18.5 μL mixture to OptiPlate 384, and read using an Envision.

[1] = target: T2, Ba/F3 cells with EGFR exon 20 NPG Ins D770_N771 (Homo sapiens, UniProt P00533, INS770NPG); experiment: EGFR activity: Ba/F3 cell viability (CellTiter-Glo, 72 h), EGFR exon 20 NPG insertion; settings: EGFR exon 20 NPG Ins D770_N771, cell viability, read-out: BaF3 NPG IC50
T2 construct: expressed in transfected cells; host or cells: Ba/F3 (murine pro-B cells), retroviral transduction, puromycin selection, IL3-independent pool
T2 sequence (P00533 with tags, fused parts or gaps INS770NPG): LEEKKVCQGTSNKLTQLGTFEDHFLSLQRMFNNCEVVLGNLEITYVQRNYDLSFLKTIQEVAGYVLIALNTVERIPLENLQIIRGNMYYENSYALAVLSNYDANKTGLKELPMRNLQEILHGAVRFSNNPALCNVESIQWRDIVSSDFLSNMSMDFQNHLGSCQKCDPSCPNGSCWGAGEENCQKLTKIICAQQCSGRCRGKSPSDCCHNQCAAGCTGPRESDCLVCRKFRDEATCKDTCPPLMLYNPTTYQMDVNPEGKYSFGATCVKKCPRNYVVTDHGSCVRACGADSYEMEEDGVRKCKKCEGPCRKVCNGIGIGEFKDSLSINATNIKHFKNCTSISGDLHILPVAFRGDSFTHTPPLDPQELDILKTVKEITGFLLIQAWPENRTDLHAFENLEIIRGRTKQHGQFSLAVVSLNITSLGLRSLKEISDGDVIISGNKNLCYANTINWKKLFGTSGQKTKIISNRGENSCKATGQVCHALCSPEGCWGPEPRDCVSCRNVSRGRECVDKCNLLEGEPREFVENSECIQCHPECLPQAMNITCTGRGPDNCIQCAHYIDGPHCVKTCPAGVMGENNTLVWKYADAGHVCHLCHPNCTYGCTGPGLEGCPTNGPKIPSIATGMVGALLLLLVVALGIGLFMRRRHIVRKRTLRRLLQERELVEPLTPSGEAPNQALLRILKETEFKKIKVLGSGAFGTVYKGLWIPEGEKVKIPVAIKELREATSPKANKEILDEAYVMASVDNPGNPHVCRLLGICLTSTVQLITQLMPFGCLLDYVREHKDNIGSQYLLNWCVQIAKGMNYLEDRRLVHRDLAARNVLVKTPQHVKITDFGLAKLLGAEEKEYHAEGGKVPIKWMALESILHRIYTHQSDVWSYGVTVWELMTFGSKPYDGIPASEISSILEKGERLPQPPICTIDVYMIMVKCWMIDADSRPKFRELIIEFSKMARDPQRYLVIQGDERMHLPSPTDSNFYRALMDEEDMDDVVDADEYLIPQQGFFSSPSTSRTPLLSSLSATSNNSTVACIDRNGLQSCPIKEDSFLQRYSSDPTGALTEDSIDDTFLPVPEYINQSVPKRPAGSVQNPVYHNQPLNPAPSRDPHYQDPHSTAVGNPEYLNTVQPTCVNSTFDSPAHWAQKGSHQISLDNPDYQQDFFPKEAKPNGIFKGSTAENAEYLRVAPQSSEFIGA

[2] = target: T3, Ba/F3 cells with EGFR exon 20 ASV Ins V769_D770 (Homo sapiens, UniProt P00533, INS769ASV); experiment: EGFR activity: Ba/F3 cell viability (CellTiter-Glo, 72 h), EGFR exon 20 ASV insertion; settings: EGFR exon 20 ASV Ins V769_D770, cell viability, read-out: BaF3 ASV IC50
T3 construct: expressed in transfected cells; host or cells: Ba/F3 (murine pro-B cells), retroviral transduction, puromycin selection, IL3-independent pool
T3 sequence (P00533 with tags, fused parts or gaps INS769ASV): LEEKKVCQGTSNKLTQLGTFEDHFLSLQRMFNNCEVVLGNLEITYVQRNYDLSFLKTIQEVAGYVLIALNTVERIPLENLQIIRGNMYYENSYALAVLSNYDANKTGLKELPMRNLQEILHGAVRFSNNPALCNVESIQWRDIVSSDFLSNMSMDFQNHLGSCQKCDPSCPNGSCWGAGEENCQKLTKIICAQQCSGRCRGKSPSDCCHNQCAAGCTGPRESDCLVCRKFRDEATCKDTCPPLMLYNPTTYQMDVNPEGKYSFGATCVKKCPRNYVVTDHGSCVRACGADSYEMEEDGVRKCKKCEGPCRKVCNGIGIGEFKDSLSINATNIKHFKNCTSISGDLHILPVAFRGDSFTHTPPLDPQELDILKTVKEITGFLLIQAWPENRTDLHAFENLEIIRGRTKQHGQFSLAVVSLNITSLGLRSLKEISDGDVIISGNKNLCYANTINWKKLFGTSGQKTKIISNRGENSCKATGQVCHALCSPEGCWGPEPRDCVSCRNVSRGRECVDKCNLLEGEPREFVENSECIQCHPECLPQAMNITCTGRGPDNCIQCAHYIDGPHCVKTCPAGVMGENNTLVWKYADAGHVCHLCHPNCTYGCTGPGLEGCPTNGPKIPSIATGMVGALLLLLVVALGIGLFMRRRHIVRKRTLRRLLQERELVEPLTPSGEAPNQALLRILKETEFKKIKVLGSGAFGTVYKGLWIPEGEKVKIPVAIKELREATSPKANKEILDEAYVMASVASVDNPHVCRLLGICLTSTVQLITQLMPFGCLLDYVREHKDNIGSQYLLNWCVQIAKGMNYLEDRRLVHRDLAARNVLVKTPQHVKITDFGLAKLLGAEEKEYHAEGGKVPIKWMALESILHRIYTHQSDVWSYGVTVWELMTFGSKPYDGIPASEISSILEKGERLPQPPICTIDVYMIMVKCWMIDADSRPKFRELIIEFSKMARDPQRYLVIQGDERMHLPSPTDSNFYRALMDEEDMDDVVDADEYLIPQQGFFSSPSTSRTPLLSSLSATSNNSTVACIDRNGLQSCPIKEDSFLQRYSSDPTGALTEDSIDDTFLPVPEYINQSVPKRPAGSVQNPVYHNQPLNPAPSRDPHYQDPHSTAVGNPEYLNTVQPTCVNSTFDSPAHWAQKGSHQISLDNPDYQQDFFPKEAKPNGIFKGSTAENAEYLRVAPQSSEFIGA

Ba/F3 cells with EGFR WT = target: T4, Ba/F3 cells with EGFR WT (Homo sapiens, UniProt P00533); experiment: EGFR activity: Ba/F3 cell viability (CellTiter-Glo, 72 h), EGFR WT; settings: read-out: BaF3 WT IC50
T4 construct: expressed in transfected cells; host or cells: Ba/F3 (murine pro-B cells), retroviral transduction, puromycin selection, maintained with EGF
T4 sequence (P00533 25-1210): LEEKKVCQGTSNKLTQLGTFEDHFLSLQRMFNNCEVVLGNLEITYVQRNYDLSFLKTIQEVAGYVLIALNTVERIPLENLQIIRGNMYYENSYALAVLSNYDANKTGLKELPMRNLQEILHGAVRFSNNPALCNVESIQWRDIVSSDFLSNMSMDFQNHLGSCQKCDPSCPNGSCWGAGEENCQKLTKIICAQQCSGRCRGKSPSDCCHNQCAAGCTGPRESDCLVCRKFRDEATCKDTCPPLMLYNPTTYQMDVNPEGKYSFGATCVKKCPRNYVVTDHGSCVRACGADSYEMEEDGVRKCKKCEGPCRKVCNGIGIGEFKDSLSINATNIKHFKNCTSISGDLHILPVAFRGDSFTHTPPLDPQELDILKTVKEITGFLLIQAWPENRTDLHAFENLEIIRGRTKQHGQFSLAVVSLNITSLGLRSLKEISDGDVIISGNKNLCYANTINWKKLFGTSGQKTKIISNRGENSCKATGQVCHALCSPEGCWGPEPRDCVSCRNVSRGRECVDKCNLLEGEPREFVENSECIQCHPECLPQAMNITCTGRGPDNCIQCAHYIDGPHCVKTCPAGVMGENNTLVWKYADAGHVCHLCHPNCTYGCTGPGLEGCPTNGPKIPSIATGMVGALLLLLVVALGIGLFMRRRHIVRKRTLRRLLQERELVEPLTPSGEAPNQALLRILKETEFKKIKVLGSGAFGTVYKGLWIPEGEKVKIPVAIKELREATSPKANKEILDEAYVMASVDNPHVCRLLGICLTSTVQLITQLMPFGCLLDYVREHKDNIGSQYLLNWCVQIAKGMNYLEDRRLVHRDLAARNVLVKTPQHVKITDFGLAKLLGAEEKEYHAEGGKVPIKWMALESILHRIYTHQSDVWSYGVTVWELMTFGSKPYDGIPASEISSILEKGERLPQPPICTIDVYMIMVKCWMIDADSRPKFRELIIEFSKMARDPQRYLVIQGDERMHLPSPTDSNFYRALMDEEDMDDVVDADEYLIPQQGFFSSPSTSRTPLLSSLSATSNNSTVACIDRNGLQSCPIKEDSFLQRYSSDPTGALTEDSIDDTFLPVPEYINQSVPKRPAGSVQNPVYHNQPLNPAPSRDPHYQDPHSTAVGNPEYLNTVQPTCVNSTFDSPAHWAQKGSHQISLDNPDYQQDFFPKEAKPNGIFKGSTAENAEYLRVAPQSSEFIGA

T1 sequence (P00533 with tags, fused parts or gaps DUP767-769): as the sequence (P00533 with tags, fused parts or gaps INS769ASV) above

`C=CC(=O)N1[C@@H](COc2cnccc2-c2[nH]c3c(c2Nc2cccc(F)c2OC)C(=O)NCC3)C[C@H]1C` (relative stereo) [compound 332] showed an IC50 (pEGFR in CUTO14 cells) of less than 100 nM.

For `C=CC(=O)N1CC(C)(C)C1C#Cc1cnccc1-c1[nH]c2c(c1Nc1cccc(Cl)c1OC)C(=O)NCC2` (single isomer, unassigned) [compound 233], the IC50 (pEGFR in CUTO14 cells) was less than 100 nM.

Compound `C=CC(=O)N1CC(C)(C)C1C#Cc1cnccc1-c1[nH]c2c(c1Nc1cccc(F)c1OC)C(=O)NCC2` (single isomer, unassigned) [compound 249] has an IC50 (pEGFR in CUTO14 cells) of less than 100 nM.

`C=CC(=O)NC1(C#Cc2cnccc2-c2[nH]c3c(c2Nc2cccc(Cl)c2OC)C(=O)NCC3)CCOC1` (single isomer, unassigned) [compound 322] showed an IC50 (pEGFR in CUTO14 cells) of less than 100 nM.

With `C=CC(=O)N1CCC1(C)COc1cnccc1-c1[nH]c2c(c1Nc1cccc(F)c1CC)C(=O)NCC2` (single isomer, unassigned) [compound 359] the IC50 (pEGFR in CUTO14 cells) was less than 100 nM.

`C=CC(=O)N1CCC1(C)COc1cnccc1-c1[nH]c2c(c1Nc1cccc(Cl)c1OC)C(=O)NCC2` (single isomer, unassigned) [compound 511] gave an IC50 (pEGFR in CUTO14 cells) of less than 100 nM.

With `C=CC(=O)N1CC(C)(C)C1COc1cnccc1-c1[nH]c2c(c1Nc1cccc(Cl)c1OC)C(=O)NCC2` (single isomer, unassigned) [compound 513] the IC50 (pEGFR in CUTO14 cells) was less than 100 nM.

For `C=CC(=O)NC1(C#Cc2cnccc2-c2[nH]c3c(c2Nc2cccc(F)c2OC)C(=O)NCC3)CC1` [compound 206, N-{1-[2-(4-{3-[(3-fluoro-2-methoxyphenyl)amino]-4-oxo-1H,5H,6H,7H-pyrrolo[3,2-c]pyridin-2-yl}pyridin-3-yl)ethynyl]cyclopropyl}prop-2-enamide], the IC50 (pEGFR in CUTO14 cells) was less than 100 nM.

`Cc1c(F)cccc1Nc1c(-c2ccncc2OC[C@@H]2CCCN2C(=O)/C=C/CN(C)C)[nH]c2c1C(=O)NCC2` [compound 217, 2-(3-{[(2S)-1-[(2E)-4-(dimethylamino)but-2-enoyl]pyrrolidin-2-yl]methoxy}pyridin-4-yl)-3-[(3-fluoro-2-methylphenyl)amino]-1H,5H,6H,7H-pyrrolo[3,2-c] pyridin-4-one] showed an IC50 (pEGFR in CUTO14 cells) of less than 100 nM.

`C=CC(=O)N1CC(C)(C)[C@H]1C#Cc1cnccc1-c1[nH]c2c(c1Nc1cccc(Cl)c1OC)C(=O)NCC2` [compound 232, 3-[(3-chloro-2-methoxyphenyl)amino]-2-(3-{2-[(2R)-3,3-dimethyl-1-(prop-2-enoyl)azetidin-2-yl]ethynyl}pyridin-4-yl)-1H,5H,6H,7H-pyrrolo[3,2-c]pyridin-4-one] showed an IC50 (pEGFR in CUTO14 cells) of less than 100 nM.

Work on `C=CC(=O)N1CC(C)(C)C[C@@H]1C#Cc1cnccc1-c1[nH]c2c(c1Nc1cccc(F)c1OC)C(=O)NCC2` [compound 253, 2-(3-{2-[(2R)-4,4-dimethyl-1-(prop-2-enoyl)pyrrolidin-2-yl]ethynyl}pyridin-4-yl)-3-[(3-fluoro-2-methoxyphenyl)amino]-1H,5H,6H,7H-pyrrolo[3,2-c]pyridin-4-one] yielded an IC50 (pEGFR in CUTO14 cells) of less than 100 nM.

In the case of `C=CC(=O)N(C)C(C)(C)C#Cc1cnccc1-c1[nH]c2c(c1Nc1cccc(F)c1OC)C(=O)NCC2` [compound 259, N-[4-(4-{3-[(3-fluoro-2-methoxyphenyl)amino]-4-oxo-1H,5H,6H,7H-pyrrolo[3,2-c]pyridin-2-yl}pyridin-3-yl)-2-methylbut-3-yn-2-yl]-N-methylprop-2-enamide], the IC50 (pEGFR in CUTO14 cells) is reported as less than 100 nM.

`C=CC(=O)NC1(C#Cc2cnccc2-c2[nH]c3c(c2Nc2cccc(F)c2OC)C(=O)NCC3)COC1` [compound 263] showed an IC50 (pEGFR in CUTO14 cells) of less than 100 nM.

`C=CC(=O)N1[C@H]2CC[C@H](C2)[C@@H]1COc1cnccc1-c1[nH]c2c(c1Nc1cccc(Cl)c1OC)C(=O)NCC2` [compound 274, 3-[(3-chloro-2-methoxyphenyl)amino]-2-(3-{[(1S,3R,4R)-2-(prop-2-enoyl)-2-azabicyclo[2.2.1]heptan-3-yl]methoxy}pyridin-4-yl)-1H,5H,6H,7H-pyrrolo[3,2-c]pyridin-4-one] showed an IC50 (pEGFR in CUTO14 cells) of less than 100 nM.

In the case of `CC#CC(=O)N1CC[C@H]1COc1cnccc1-c1[nH]c2c(c1Nc1cccc(Cl)c1OC)C(=O)NCC2` [compound 288, 2-(3-{[(2S)-1-(but-2-ynoyl)azetidin-2-yl]methoxy}pyridin-4-yl)-3-[(3-chloro-2-methoxyphenyl)amino]-1H,5H,6H,7H-pyrrolo[3,2-c]pyridin-4-one], the IC50 (pEGFR in CUTO14 cells) is reported as less than 100 nM.

Compound `CC#CC(=O)N1CC[C@@H]1COc1cnccc1-c1[nH]c2c(c1Nc1cccc(F)c1OC)C(=O)NCC2` [compound 289, 2-(3-{[(2R)-1-(but-2-ynoyl)azetidin-2-yl]methoxy}pyridin-4-yl)-3-[(3-fluoro-2-methoxyphenyl)amino]-1H,5H,6H,7H-pyrrolo[3,2-c]pyridin-4-one] has an IC50 (pEGFR in CUTO14 cells) of less than 100 nM.

`CC#CC(=O)N1CCC[C@]1(C)C#Cc1cnccc1-c1[nH]c2c(c1Nc1cccc(F)c1OC)C(=O)NCC2` [compound 291, 2-(3-{2-[(2R)-1-(but-2-ynoyl)-2-methylpyrrolidin-2-yl]ethynyl}pyridin-4-yl)-3-[(3-fluoro-2-methoxyphenyl)amino]-1H,5H,6H,7H-pyrrolo[3,2-c]pyridin-4-one] showed an IC50 (pEGFR in CUTO14 cells) of less than 100 nM.

Work on `C=C(F)C(=O)N1CC[C@H]1COc1cnccc1-c1[nH]c2c(c1Nc1cccc(F)c1OC)C(=O)NCC2` [compound 296, 3-[(3-fluoro-2-methoxyphenyl)amino]-2-(3-{[(2S)-1-(2-fluoroprop-2-enoyl)azetidin-2-yl]methoxy}pyridin-4-yl)-1H,5H,6H,7H-pyrrolo[3,2-c]pyridin-4-one] yielded an IC50 (pEGFR in CUTO14 cells) of less than 100 nM.

`CC#CC(=O)NC(C)(C)C#Cc1cnccc1-c1[nH]c2c(c1Nc1cccc(F)c1OC)C(=O)NCC2` [compound 302, N-[4-(4-{3-[(3-fluoro-2-methoxyphenyl)amino]-4-oxo-1H,5H,6H,7H-pyrrolo[3,2-c]pyridin-2-yl}pyridin-3-yl)-2-methylbut-3-yn-2-yl]but-2-ynamide] showed an IC50 (pEGFR in CUTO14 cells) of less than 100 nM.

`C=CC(=O)N1CC2CC1(C#Cc1cnccc1-c1[nH]c3c(c1Nc1cccc(F)c1OC)C(=O)NCC3)C2` [compound 318, 3-[(3-fluoro-2-methoxyphenyl)amino]-2-(3-{2-[2-(prop-2-enoyl)-2-azabicyclo[2.1.1]hexan-1-yl]ethynyl}pyridin-4-yl)-1H,5H,6H,7H-pyrrolo[3,2-c]pyridin-4-one] gave an IC50 (pEGFR in CUTO14 cells) of less than 100 nM.

`C=CC(=O)N1C(C)CC1COc1cnccc1-c1[nH]c2c(c1Nc1cccc(F)c1OC)C(=O)NCC2` (centres unmarked) [compound 333] showed an IC50 (pEGFR in CUTO14 cells) of less than 100 nM.

With `COc1c(F)cccc1Nc1c(-c2ccncc2C#C[C@@]2(C)CCCN2C(=O)/C=C/CN(C)C)[nH]c2c1C(=O)NCC2` [compound 335, 2-(3-{2-[(2R)-1-[(2E)-4-(dimethylamino)but-2-enoyl]-2-methylpyrrolidin-2-yl]ethynyl}pyridin-4-yl)-3-[(3-fluoro-2-methoxyphenyl)amino]-1H,5H,6H,7H-pyrrolo[3,2-c]pyridin-4-one] the IC50 (pEGFR in CUTO14 cells) was less than 100 nM.

In the case of `COc1c(F)cccc1Nc1c(-c2ccncc2C#C[C@H]2CC(C)(C)CN2C(=O)/C=C/CN(C)C)[nH]c2c1C(=O)NCC2` [compound 344, 2-(3-{2-[(2R)-1-[(2E)-4-(dimethylamino)but-2-enoyl]-4,4-dimethylpyrrolidin-2-yl]ethynyl}pyridin-4-yl)-3-[(3-fluoro-2-methoxyphenyl)amino]-1H,5H,6H,7H-pyrrolo[3,2-c]pyridin-4-one], the IC50 (pEGFR in CUTO14 cells) is reported as less than 100 nM.

Compound `COc1c(F)cccc1Nc1c(-c2ccncc2C#C[C@H]2C[C@@H]3C[C@@H]3N2C(=O)/C=C/CN(C)C)[nH]c2c1C(=O)NCC2` [compound 345, 2-(3-{2-[(1S,3R,5S)-2-[(2E)-4-(dimethylamino)but-2-enoyl]-2-azabicyclo[3.1.0]hexan-3-yl]ethynyl}pyridin-4-yl)-3-[(3-fluoro-2-methoxyphenyl)amino]-1H,5H,6H,7H-pyrrolo[3,2-c]pyridin-4-one] has an IC50 (pEGFR in CUTO14 cells) of less than 100 nM.

`CC#CC(=O)N1CC[C@@H]1COc1cnccc1-c1[nH]c2c(c1Nc1cccc(Cl)c1CC)C(=O)NCC2` [compound 348, 2-(3-{[(2R)-1-(but-2-ynoyl)azetidin-2-yl]methoxy}pyridin-4-yl)-3-[(3-chloro-2-ethylphenyl)amino]-1H,5H,6H,7H-pyrrolo[3,2-c]pyridin-4-one] gave an IC50 (pEGFR in CUTO14 cells) of less than 100 nM.

For `COc1c(Cl)cccc1Nc1c(-c2ccncc2C#C[C@@]2(C)CCCN2C(=O)/C=C/CN(C)C)[nH]c2c1C(=O)NCC2` [compound 362, 3-[(3-chloro-2-methoxyphenyl)amino]-2-(3-{2-[(2R)-1-[(2E)-4-(dimethylamino)but-2-enoyl]-2-methylpyrrolidin-2-yl]ethynyl}pyridin-4-yl)-1H,5H,6H,7H-pyrrolo[3,2-c]pyridin-4-one], the IC50 (pEGFR in CUTO14 cells) was less than 100 nM.

`COc1c(F)cccc1Nc1c(-c2ccncc2C#C[C@]2(C)COCCN2C(=O)/C=C/CN(C)C)[nH]c2c1C(=O)NCC2` [compound 631] was tested, and the IC50 [1] was less than 100 nM, the IC50 [2] was less than 100 nM and the IC50 (Ba/F3 cells with EGFR WT) was 100 to 1000 nM.

`C=CC(=O)N1CCOC[C@@]1(C)C#Cc1cnccc1-c1[nH]c2c(c1Nc1cccc(F)c1OC)C(=O)NCC2` [compound 632] gave an IC50 [1] of less than 100 nM, an IC50 [2] of less than 100 nM and an IC50 (Ba/F3 cells with EGFR WT) of 100 to 1000 nM.

Work on `C=CC(=O)N1CCOC[C@@]1(C)C#Cc1cnccc1-c1[nH]c2c(c1Nc1cccc(Cl)c1OC)C(=O)NCC2` [compound 634] yielded an IC50 [1] of less than 100 nM, an IC50 [2] of less than 100 nM and an IC50 (Ba/F3 cells with EGFR WT) of 100 to 1000 nM.

Source: US20230364070A1, “PYRROLO[3,2-C]PYRIDIN-4-ONE DERIVATIVES USEFUL IN THE TREATMENT OF CANCER” (Scorpion Therapeutics, Inc., priority 2020, published 2023)
